Literature values as cited in patent US6841363B2, “Preparation of capped mRNA” (Emory University, priority 2000, dated 2005).

Assays:
m7GTP = details: previous study (U.S. Pat. No. 6,232,442); human eIF4E and mutants; read-out: Kd (affinity for m7GTP)
[1] = intrinsic fluorescence, m7GTP; W56Y compared with wild-type, 'shown therein' (Hsu et al. 2000 / U.S. Pat. No. 6,232,442)

Kd (m7GTP): 1.2 µM
Kd [1]: 0.318 µM
Substance: wild-type: abundant form of human eIF4E (eukaryotic initiation factor 4E) previously isolated and characterized
